{"source": "patent US20230085307A1", "about": "“PYRIDAZINONE COMPOUND AND HERBICIDE” (NISSAN CHEMICAL CORPORATION, priority 2019, published 2023)", "key": {"velvetleaf [1]": {"test_system": "velvetleaf", "assay": "Test Example 4: herbicidal effect by soil treatment (Table 19, symbol M)", "format": "in vivo, velvetleaf (Abutilon theophrasti)", "details": "96 g/ha", "how_it_was_run": "(§1)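 Three weeks of greenhouse growth at 25° C. to 30° C. followed a uniform surface spray of water-diluted emulsion at a predetermined herbicide amount. Seeds had been sown beforehand under about 1.5 cm of sterilized diluvial soil. Grading followed criteria set out in an earlier test.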"}, "lambsquarters [2]": {"test_system": "lambsquarters", "assay": "Test Example 5: herbicidal effect by foliage application, plastic box (Table 20, symbol O)", "format": "in vivo, lambsquarters (Chenopodium album)", "details": "foliage application, 96 g/ha, evaluated three weeks after application", "how_it_was_run": "(§2)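 Plants sown in sterilized diluvial soil and grown 14 days in a greenhouse at 25° C to 30° C, then sprayed on the foliage with the compound's emulsion diluted in water to a predetermined herbicide amount. Injury to weeds and crops scored three weeks after application on a visual rating scale.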"}, "lambsquarters [3]": {"test_system": "lambsquarters", "assay": "Test Example 4: herbicidal effect by soil treatment (Table 19, symbol O)", "format": "in vivo, lambsquarters (Chenopodium album)", "details": "96 g/ha", "how_it_was_run": "as §1"}, "redroot pigweed [4]": {"test_system": "redroot pigweed", "assay": "Test Example 5: herbicidal effect by foliage application, plastic box (Table 20, symbol N)", "format": "in vivo, redroot pigweed (Amaranthus retroflexus)", "details": "foliage application, 96 g/ha, evaluated three weeks after application", "how_it_was_run": "as §2"}, "green foxtail [5]": {"test_system": "green foxtail", "assay": "Test Example 4: herbicidal effect by soil treatment (Table 19, symbol G)", "format": "in vivo, green foxtail (Setaria viridis)", "details": "96 g/ha", "how_it_was_run": "as §1"}, "barnyard grass [6]": {"test_system": "barnyard grass", "assay": "Test Example 4: herbicidal effect by soil treatment (Table 19, symbol H)", "format": "in vivo, barnyard grass (Echinochloa crus-galli)", "details": "96 g/ha", "how_it_was_run": "as §1"}, "wild oat [7]": {"test_system": "wild oat", "assay": "Test Example 4: herbicidal effect by soil treatment (Table 19, symbol I)", "format": "in vivo, wild oat (Avena fatua)", "details": "96 g/ha", "how_it_was_run": "as §1"}, "barnyard grass [8]": {"test_system": "barnyard grass", "assay": "Test Example 5: herbicidal effect by foliage application, plastic box (Table 20, symbol H)", "format": "in vivo, barnyard grass (Echinochloa crus-galli)", "details": "foliage application, 96 g/ha, evaluated three weeks after application", "how_it_was_run": "as §2"}, "wild oat [9]": {"test_system": "wild oat", "assay": "Test Example 5: herbicidal effect by foliage application, plastic box (Table 20, symbol I)", "format": "in vivo, wild oat (Avena fatua)", "details": "foliage application, 96 g/ha, evaluated three weeks after application", "how_it_was_run": "as §2"}, "chickweed [10]": {"test_system": "chickweed", "assay": "Test Example 5: herbicidal effect by foliage application, plastic box (Table 20, symbol P)", "format": "in vivo, common chickweed (Stellaria media)", "details": "foliage application, 96 g/ha, evaluated three weeks after application", "how_it_was_run": "as §2"}, "Italian ryegrass [11]": {"test_system": "Italian ryegrass", "assay": "Test Example 4: herbicidal effect by soil treatment (Table 19, symbol K)", "format": "in vivo, Italian ryegrass (Lolium multiflorum)", "details": "96 g/ha", "how_it_was_run": "as §1"}, "blackgrass [12]": {"test_system": "blackgrass", "assay": "Test Example 5: herbicidal effect by foliage application, plastic box (Table 20, symbol J)", "format": "in vivo, blackgrass (Alopecurus myosuroides)", "details": "foliage application, 96 g/ha, evaluated three weeks after application", "how_it_was_run": "as §2"}, "windgrass [13]": {"test_system": "windgrass", "assay": "Test Example 4: herbicidal effect by soil treatment (Table 19, symbol L)", "format": "in vivo, windgrass (Apera spica-venti)", "details": "96 g/ha", "how_it_was_run": "as §1"}, "green foxtail [14]": {"test_system": "green foxtail", "assay": "Test Example 5: herbicidal effect by foliage application, plastic box (Table 20, symbol G)", "format": "in vivo, green foxtail (Setaria viridis)", "details": "foliage application, 96 g/ha, evaluated three weeks after application", "how_it_was_run": "as §2"}, "Italian ryegrass [15]": {"test_system": "Italian ryegrass", "assay": "Test Example 5: herbicidal effect by foliage application, plastic box (Table 20, symbol K)", "format": "in vivo, Italian ryegrass (Lolium multiflorum)", "details": "foliage application, 96 g/ha, evaluated three weeks after application", "how_it_was_run": "as §2"}, "persian speedwell [16]": {"test_system": "persian speedwell", "assay": "Test Example 4: herbicidal effect by soil treatment (Table 19, symbol R)", "format": "in vivo, Persian speedwell (Veronica persica)", "details": "96 g/ha", "how_it_was_run": "as §1"}, "chickweed [17]": {"test_system": "chickweed", "assay": "Test Example 4: herbicidal effect by soil treatment (Table 19, symbol P)", "format": "in vivo, common chickweed (Stellaria media)", "details": "96 g/ha", "how_it_was_run": "as §1"}, "southern crabgrass [18]": {"test_system": "southern crabgrass", "assay": "Test Example 4: herbicidal effect by soil treatment (Table 19, symbol F)", "format": "in vivo, southern crabgrass (Digitaria ciliaris)", "details": "96 g/ha", "how_it_was_run": "as §1"}, "persian speedwell [19]": {"test_system": "persian speedwell", "assay": "Test Example 5: herbicidal effect by foliage application, plastic box (Table 20, symbol R)", "format": "in vivo, Persian speedwell (Veronica persica)", "details": "foliage application, 96 g/ha, evaluated three weeks after application", "how_it_was_run": "as §2"}, "barnyard grass [20]": {"test_system": "barnyard grass", "assay": "Test Example 3: herbicidal effect by foliage application, Wagner pot (Table 18, symbol H)", "format": "in vivo, barnyard grass (Echinochloa crus-galli)", "details": "96 g/ha", "how_it_was_run": "(§3)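 Plants were sown in alluvial soil held under 0.1–0.5 cm standing water and grown 14 days in a greenhouse at 25–30 °C. An emulsifiable formulation, water-diluted to the set dose, was then sprayed onto the foliage, and effects were scored three weeks later using previously defined criteria.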"}, "windgrass [21]": {"test_system": "windgrass", "assay": "Test Example 5: herbicidal effect by foliage application, plastic box (Table 20, symbol L)", "format": "in vivo, windgrass (Apera spica-venti)", "details": "foliage application, 96 g/ha, evaluated three weeks after application", "how_it_was_run": "as §2"}, "velvetleaf [22]": {"test_system": "velvetleaf", "assay": "Test Example 5: herbicidal effect by foliage application, plastic box (Table 20, symbol M)", "format": "in vivo, velvetleaf (Abutilon theophrasti)", "details": "foliage application, 96 g/ha, evaluated three weeks after application", "how_it_was_run": "as §2"}, "blackgrass [23]": {"test_system": "blackgrass", "assay": "Test Example 4: herbicidal effect by soil treatment (Table 19, symbol J)", "format": "in vivo, blackgrass (Alopecurus myosuroides)", "details": "96 g/ha", "how_it_was_run": "as §1"}, "redroot pigweed [24]": {"test_system": "redroot pigweed", "assay": "Test Example 4: herbicidal effect by soil treatment (Table 19, symbol N)", "format": "in vivo, redroot pigweed (Amaranthus retroflexus)", "details": "96 g/ha", "how_it_was_run": "as §1"}, "Chinese sprangletop": {"test_system": "Chinese sprangletop", "assay": "Test Example 3: herbicidal effect by foliage application, Wagner pot (Table 18, symbol D)", "format": "in vivo, chinese sprangletop (Leptochloa chinensis)", "details": "96 g/ha", "how_it_was_run": "as §3"}, "southern crabgrass [25]": {"test_system": "southern crabgrass", "assay": "Test Example 5: herbicidal effect by foliage application, plastic box (Table 20, symbol F)", "format": "in vivo, southern crabgrass (Digitaria ciliaris)", "details": "foliage application, 96 g/ha, evaluated three weeks after application", "how_it_was_run": "as §2"}}}
{"smiles": "Cc1nn(C)c(=O)c(-c2c(-c3ccccc3)sc3ccc(Cl)cc23)c1O", "note": "[2-094]", "values": [{"measurement": "herbicidal effect rating, M: velvetleaf", "setting": "velvetleaf [1]", "result": "0 (Herbicidal rate of 5% or less (almost no effect))"}, {"measurement": "herbicidal effect on O: lambsquarters", "setting": "lambsquarters [2]", "result": "2 (Herbicidal rate of 20% or more and less than 40%)"}, {"measurement": "herbicidal effect rating, O: lambsquarters", "setting": "lambsquarters [3]", "result": "3 (Herbicidal rate of 40% or more and less than 70%)"}, {"measurement": "herbicidal effect on N: redroot pigweed", "setting": "redroot pigweed [4]", "result": "3 (Herbicidal rate of 40% or more and less than 70%)"}, {"measurement": "herbicidal effect rating, G: green foxtail", "setting": "green foxtail [5]", "result": "0 (Herbicidal rate of 5% or less (almost no effect))"}, {"measurement": "herbicidal effect rating, H: barnyard grass", "setting": "barnyard grass [6]", "result": "0 (Herbicidal rate of 5% or less (almost no effect))"}, {"measurement": "herbicidal effect rating, I: wild oat", "setting": "wild oat [7]", "result": "0 (Herbicidal rate of 5% or less (almost no effect))"}, {"measurement": "herbicidal effect on H: barnyard grass", "setting": "barnyard grass [8]", "result": "0 (Herbicidal rate of 5% or less (almost no effect))"}, {"measurement": "herbicidal effect on I: wild oat", "setting": "wild oat [9]", "result": "0 (Herbicidal rate of 5% or less (almost no effect))"}, {"measurement": "herbicidal effect on P: chickweed", "setting": "chickweed [10]", "result": "5 (Herbicidal rate of 90% or more (almost completely withered))"}, {"measurement": "herbicidal effect rating, K: Italian ryegrass", "setting": "Italian ryegrass [11]", "result": "0 (Herbicidal rate of 5% or less (almost no effect))"}, {"measurement": "herbicidal effect on J: blackgrass", "setting": "blackgrass [12]", "result": "0 (Herbicidal rate of 5% or less (almost no effect))"}, {"measurement": "herbicidal effect rating, L: windgrass", "setting": "windgrass [13]", "result": "0 (Herbicidal rate of 5% or less (almost no effect))"}, {"measurement": "herbicidal effect on G: green foxtail", "setting": "green foxtail [14]", "result": "0 (Herbicidal rate of 5% or less (almost no effect))"}, {"measurement": "herbicidal effect on K: Italian ryegrass", "setting": "Italian ryegrass [15]", "result": "2 (Herbicidal rate of 20% or more and less than 40%)"}, {"measurement": "herbicidal effect rating, R: persian speedwell", "setting": "persian speedwell [16]", "result": "0 (Herbicidal rate of 5% or less (almost no effect))"}, {"measurement": "herbicidal effect rating, P: chickweed", "setting": "chickweed [17]", "result": "0 (Herbicidal rate of 5% or less (almost no effect))"}, {"measurement": "herbicidal effect rating, F: southern crabgrass", "setting": "southern crabgrass [18]", "result": "0 (Herbicidal rate of 5% or less (almost no effect))"}, {"measurement": "herbicidal effect on R: persian speedwell", "setting": "persian speedwell [19]", "result": "1 (Herbicidal rate of 5% or more and less than 20%)"}, {"measurement": "herbicidal effect on H (barnyard grass), rating 0-5", "setting": "barnyard grass [20]", "result": "2 (Herbicidal rate of 20% or more and less than 40%)"}, {"measurement": "herbicidal effect on L: windgrass", "setting": "windgrass [21]", "result": "0 (Herbicidal rate of 5% or less (almost no effect))"}, {"measurement": "herbicidal effect on M: velvetleaf", "setting": "velvetleaf [22]", "result": "3 (Herbicidal rate of 40% or more and less than 70%)"}, {"measurement": "herbicidal effect rating, J: blackgrass", "setting": "blackgrass [23]", "result": "0 (Herbicidal rate of 5% or less (almost no effect))"}, {"measurement": "herbicidal effect rating, N: redroot pigweed", "setting": "redroot pigweed [24]", "result": "5 (Herbicidal rate of 90% or more (almost completely withered))"}, {"measurement": "herbicidal effect on D (Chinese sprangletop), rating 0-5", "setting": "Chinese sprangletop", "result": "0 (Herbicidal rate of 5% or less (almost no effect))"}, {"measurement": "herbicidal effect on F: southern crabgrass", "setting": "southern crabgrass [25]", "result": "0 (Herbicidal rate of 5% or less (almost no effect))"}]}
